Measured values: ChEMBL document CHEMBL3244164, “Synthesis and analgesic activity of 1,3-dihydro-3-(substituted phenyl)imidazo[4,5-b]pyridin-2-ones and 3-(substituted phenyl)-1,2,3-triazolo[4,5-b]pyridines” (J Med Chem, 1978)

How the values were obtained:
[1] = tested on: Rattus norvegicus; experiment: Analgesic activity in Sprague-Dawley rat brewer's yeast treated foot assessed as response threshold at 32 mg/kg, po; assay type: functional
[2] = tested on: Rattus norvegicus; experiment: Analgesic activity in Sprague-Dawley rat normal foot assessed as response threshold at 32 mg/kg, po; assay type: functional

Row | Structure (SMILES) | Activity [1] [mm] | Activity [2] [mm]
1 | CCC1(CC)Oc2ccc(-n3nnc4cccnc43)cc2O1 | <25 | <40
2 | O=c1[nH]c2cccnc2n1-c1ccc(Cl)cc1Cl | 25 | <40
3 | Cc1ccc(F)c(-n2nnc3cccnc32)c1 | <25 | <40
4 | Nc1cnc2c(c1)[nH]c(=O)n2-c1ccccc1F | <25 | <40
5 | O=c1[nH]c2ccccc2n1-c1ccc2c(c1)OCO2 | <25 | <40
6 | Fc1ccccc1-n1nnc2cc(Cl)cnc21 | 25 | <40
7 | Cc1cccc(-n2c(=O)[nH]c3cccnc32)n1 | <25 | <40
8 | Oc1ccccc1-n1nnc2cccnc21 | <25 | <40
9 | C=CCn1c(=O)n(-c2ccc3c(c2)OCO3)c2ncccc21.CI | <25 | <40
10 | CCOC(=O)c1cccc(-n2c(=O)[nH]c3cccnc32)c1 | <25 | <40
11 | Fc1cccc(F)c1-n1nnc2cccnc21 | 25 | <40
12 | O=c1[nH]c2cc([N+](=O)[O-])cnc2n1-c1ccccc1F | <25 | <40
13 | Clc1ccc2nnn(-c3ccccc3)c2n1 | <25 | <40
14 | NC(=O)c1cccc(-n2nnc3cccnc32)c1 | 25 | <40
15 | CN(C)c1ccccc1-n1nnc2cccnc21 | <25 | <40
16 | O=c1n(C2=NCCS2)c2cccnc2n1-c1ccc2c(c1)OCO2 | <25 | <40
17 | COc1ccc(-n2nnc3cccnc32)cc1OC | <25 | <40
18 | S=c1[nH]c2cccnc2n1-c1ccc2c(c1)OCO2 | <25 | <40
19 | O=C(C1CC1)n1c(=O)n(-c2ccc3c(c2)OCO3)c2ncccc21 | <25 | <40
20 | Cc1ccc(F)c(-n2c(=O)[nH]c3cccnc32)c1 | <25 | 40
21 | CC(C)=CCn1c(=O)n(-c2ccc3c(c2)OCO3)c2ncccc21 | <25 | <40
22 | O=C(O)c1ccc(-n2c(=O)[nH]c3cccnc32)cc1 | <25 | <40

Row | Structure (SMILES) | Activity [1] [mm] | Activity [2] [mm]
23 | C=CCn1c(=O)n(-c2ccccc2F)c2ncccc21 | 25 | <40
24 | Cc1cc2c(cc1-n1c(=O)[nH]c3cccnc31)OCO2 | <25 | <40
25 | Cc1cccc(C)c1-n1c(=O)[nH]c2cccnc21 | 25 | <40
26 | CC1(C)Oc2ccc(-n3nnc4cccnc43)cc2O1 | <25 | <40
27 | Clc1ccccc1-n1nnc2cccnc21 | 25 | <40
28 | Cc1ccc(-n2nnc3cccnc32)c(C)c1 | <25 | <40
29 | CC(C)CCn1c(=O)n(-c2ccc3c(c2)OCO3)c2ncccc21 | <25 | <40
30 | Cc1cc2c(cc1-n1nnc3cccnc31)OCO2 | <25 | <40
31 | COc1ccccc1-n1nnc2cccnc21 | 25 | <40
32 | Brc1ccccc1-n1nnc2cccnc21 | 25 | <40
33 | Cc1ccc(-n2nnc3cccnc32)cc1C | <25 | <40
34 | Fc1cccc(-n2nnc3cccnc32)c1 | <25 | <40
35 | CC(C)c1ccccc1-n1c(=O)[nH]c2cccnc21 | <25 | <40
36 | NC(=O)c1ccccc1-n1nnc2cccnc21 | 25 | <40
37 | CC(C)Cc1ccc(-n2nnc3cccnc32)cc1 | <25 | <40
38 | COC(=O)c1cnc2c(c1)nnn2-c1ccc2c(c1)OCO2 | <25 | <40
39 | Cc1c(Cl)cccc1-n1nnc2cccnc21 | <25 | <40
40 | Cc1ccc(-n2c(=O)[nH]c3cccnc32)cc1C | <25 | <40
41 | O=c1[nH]c2cccnc2n1C1CCCCC1 | <25 | <40
42 | CC(=O)Cn1c(=O)n(-c2ccc3c(c2)OCO3)c2ncccc21 | <25 | <40
43 | N#Cc1ccccc1-n1nnc2cccnc21 | 25 | <40
44 | O=c1[nH]c2cccnc2n1-c1ccc(Oc2ccccc2)cc1 | <25 | <40

Row | Structure (SMILES) | Activity [1] [mm] | Activity [2] [mm]
45 | O=c1n(-c2ccc3c(c2)OCO3)c2ncccc2n1C(F)(F)C(F)Cl (stereo not given) | <25 | <40
46 | C=C(C)Cn1c(=O)n(-c2ccc3c(c2)OCO3)c2ncccc21 | <25 | <40
47 | O=c1n(-c2ccc3c(c2)OCO3)c2ncccc2n1S(=O)(=O)C(F)(F)F | <25 | <40
48 | O=c1[nH]c2cccnc2n1-c1ccc2c(c1)OC1(CCCCC1)O2 | <25 | <40
49 | CCc1ccc(-n2nnc3cccnc32)cc1 | <25 | <40
50 | CC(=O)OCn1c(=O)n(-c2ccc3c(c2)OCO3)c2ncccc21 | <25 | <40
51 | Cc1cnc2c(c1)nnn2-c1ccccc1F | <25 | <40
52 | COc1ccc(-n2nnc3cccnc32)c(OC)c1 | <25 | <40
53 | CCCCNC(=O)n1c(=O)n(-c2ccc3c(c2)OCO3)c2ncccc21 | <25 | <40
54 | O=c1[nH]c2cncnc2n1-c1ccc2c(c1)OCO2 | <25 | <40
55 | CC1(C)Oc2ccc(-n3c(=O)[nH]c4cccnc43)cc2O1 | <25 | <40
56 | O=C(O)Cc1ccc(-n2c(=O)[nH]c3cccnc32)cc1 | <25 | <40
57 | C=CCn1c(=O)n(-c2ccc3c(c2)OCO3)c2ncncc21 | <25 | <40
58 | Cc1ccc(-n2nnc3cccnc32)cc1 | <25 | <40
59 | COc1cc(-n2c(=O)[nH]c3cccnc32)ccc1C | <25 | <40
60 | O=c1[nH]c2cccnc2n1Cc1ccc(F)cc1 | <25 | <40
61 | C#CCn1c(=O)n(-c2ccc3c(c2)OCO3)c2ncccc21 | <25 | <40
62 | O=c1n(Cc2ccccc2)c2cccnc2n1-c1ccc2c(c1)OCO2 | <25 | <40
63 | COc1ccc(-n2nnc3cccnc32)cc1 | <25 | <40
64 | Cc1cccc(C)c1-n1nnc2cccnc21 | 25 | <40
65 | C=CCn1c(=O)n(-c2ccc3c(c2)OC2(CCCCC2)O3)c2ncccc21 | <25 | 40
